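Results reflect a 48-hour exposure of cells in 96-well plates to compound at five concentrations. Abbreviation: GI50, concentration required for 50% inhibition of growth.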 Activity calls are given as the source filed them. Rule as the data show it: active = GI50 up to about 1.1 µM and inactive = higher.
Tests used:
Assay in all cases: DTP human tumour cell line panel, 48 h
A498 = test system: A498
EKVX = test system: EKVX
HCT-116 = test system: HCT-116
M14 = test system: M14
MDA-MB-435 = test system: MDA-MB-435
MOLT-4 = test system: MOLT-4
Malme-3M = test system: Malme-3M
NCI-H23 = test system: NCI-H23
OVCAR-5 = test system: OVCAR-5
PC-3 = test system: PC-3
RPMI-8226 = test system: RPMI-8226
T47D = test system: T47D
U-251 = test system: U-251
HCT-15 = test system: HCT-15
KM12 = test system: KM12
LOX IMVI = test system: LOX IMVI
NCI/ADR-RES = test system: NCI/ADR-RES
OVCAR-4 = test system: OVCAR-4
NCI-H226 = test system: NCI-H226
SK-MEL-28 = test system: SK-MEL-28

SMILES | GI50 (A498) | GI50 (EKVX) | GI50 (HCT-116) | GI50 (M14) | GI50 (MDA-MB-435) | GI50 (MOLT-4) | GI50 (Malme-3M) | GI50 (NCI-H23) | GI50 (OVCAR-5) | GI50 (PC-3) | GI50 (RPMI-8226) | GI50 (T47D) | GI50 (U-251) | GI50 (HCT-15) [µM] | GI50 (KM12) | GI50 (LOX IMVI) | GI50 (NCI/ADR-RES) | GI50 (OVCAR-4) | GI50 (NCI-H226) | GI50 (SK-MEL-28)
COc1c(-c2cccs2)oc2c(CC(=O)O)cccc2c1=O | 86.3 µM (inactive) | > 100 µM (inactive) | > 100 µM (inactive) | > 100 µM (inactive) | > 100 µM (inactive) | 56.9 µM (inactive) | > 100 µM (inactive) | 53.3 µM (inactive) | > 100 µM (inactive) | > 100 µM (inactive) | 0.23 µM (active) | > 100 µM (inactive) | > 100 µM (inactive) |  |  |  |  |  |  | 
COc1ccccc1NCc1nnc(CCCCCCCCc2nnc(CNc3ccccc3OC)o2)o1 | > 100 µM (inactive) | > 100 µM (inactive) | > 100 µM (inactive) | > 100 µM (inactive) | > 100 µM (inactive) | > 100 µM (inactive) | > 100 µM (inactive) | > 100 µM (inactive) | > 100 µM (inactive) | > 100 µM (inactive) | > 100 µM (inactive) | > 100 µM (inactive) | > 100 µM (inactive) | > 100 | > 100 µM (inactive) | > 100 µM (inactive) | > 100 µM (inactive) | > 100 µM (inactive) |  | 
C=CC(CBr)CCC(Br)C(C)(C)Br (stereo unspecified) | > 10 µM (inactive) | > 10 µM (inactive) | > 10 µM (inactive) | > 10 µM (inactive) | > 10 µM (inactive) | > 10 µM (inactive) | > 10 µM (inactive) | > 10 µM (inactive) | > 10 µM (inactive) | > 10 µM (inactive) | > 10 µM (inactive) | > 10 µM (inactive) | > 10 µM (inactive) | > 10 | > 10 µM (inactive) |  | > 10 µM (inactive) | > 10 µM (inactive) | > 10 µM (inactive) | > 10 µM (inactive)
O=C(c1ccco1)N(C(=O)N1CCN(c2ccccc2)CC1)S(=O)(=O)c1ccccc1 | 37.5 µM (inactive) | 22.4 µM (inactive) | 21.3 µM (inactive) | 23 µM (inactive) | 23.3 µM (inactive) | 21.9 µM (inactive) | 29 µM (inactive) | 23.7 µM (inactive) | 41.6 µM (inactive) | 28.6 µM (inactive) |  | 24.2 µM (inactive) | 27.4 µM (inactive) | 33.4 | 37.8 µM (inactive) |  | 23.2 µM (inactive) | 27.5 µM (inactive) | 26.4 µM (inactive) | 39.2 µM (inactive)
COc1ccc2c(c1)c1c(n2CCN2CCCCC2)-c2ccccc2CC1 |  | 17.9 µM (inactive) | 16.2 µM (inactive) | 14.7 µM (inactive) | 17.5 µM (inactive) | 14.6 µM (inactive) | 14.6 µM (inactive) | 17.7 µM (inactive) | 16.9 µM (inactive) | 13.6 µM (inactive) | 14.7 µM (inactive) | 15.1 µM (inactive) | 14.4 µM (inactive) | 11.5 | 14 µM (inactive) | 21.3 µM (inactive) | 16.7 µM (inactive) | 16.6 µM (inactive) | 5.2 µM (inactive) | 17.9 µM (inactive)
COc1cc(C(=O)O)c(-c2cc3c(cc2C=O)OCO3)c(OC)c1OC |  |  | > 10 µM (inactive) | > 10 µM (inactive) | > 10 µM (inactive) | > 10 µM (inactive) | > 10 µM (inactive) | > 10 µM (inactive) |  | > 10 µM (inactive) | > 10 µM (inactive) | > 10 µM (inactive) | > 10 µM (inactive) | > 10 | > 10 µM (inactive) | > 10 µM (inactive) | > 10 µM (inactive) | > 10 µM (inactive) |  | > 10 µM (inactive)
N#Cc1c(N2CCC(O)C2)c2ccccc2n2c1nc1ccccc12 (stereo unspecified) | 31.3 µM (inactive) | > 100 µM (inactive) | > 100 µM (inactive) | > 100 µM (inactive) | > 100 µM (inactive) | > 100 µM (inactive) | 40.4 µM (inactive) | 67.6 µM (inactive) | > 100 µM (inactive) | > 100 µM (inactive) | > 100 µM (inactive) | 64.3 µM (inactive) |  | > 100 | > 100 µM (inactive) | > 100 µM (inactive) | 65.3 µM (inactive) | 20.5 µM (inactive) |  | > 100 µM (inactive)
COc1cc2c(c(O)c1O)C(=O)C1CCC(=O)N1C2c1cccc2ccccc12 (stereo unspecified) | > 50 µM (inactive) | > 50 µM (inactive) | > 50 µM (inactive) | > 50 µM (inactive) | > 50 µM (inactive) | > 50 µM (inactive) |  | > 50 µM (inactive) | > 50 µM (inactive) | > 50 µM (inactive) | > 50 µM (inactive) | > 50 µM (inactive) | > 50 µM (inactive) | > 50 | > 50 µM (inactive) |  | > 50 µM (inactive) | > 50 µM (inactive) | > 50 µM (inactive) | > 50 µM (inactive)
C1CSC[C@H]2COC[C@@H](CSCCS1)S2 |  | > 100 µM (inactive) | > 100 µM (inactive) | > 100 µM (inactive) | > 100 µM (inactive) | > 100 µM (inactive) |  | > 100 µM (inactive) | > 100 µM (inactive) | > 100 µM (inactive) |  | > 100 µM (inactive) | > 100 µM (inactive) | > 100 | > 100 µM (inactive) | > 100 µM (inactive) | > 100 µM (inactive) | > 100 µM (inactive) |  | > 100 µM (inactive)
CN(C)CCCNc1ccc2nnn3c4ccc(OC(=O)c5ccc([N+](=O)[O-])cc5)cc4c(=O)c1c23 | 16.6 µM (inactive) | 8.85 µM (inactive) | 1.51 µM (inactive) | 13 µM (inactive) | 5.7 µM (inactive) | 0.408 µM (active) | 4.92 µM (inactive) | 6.73 µM (inactive) | 11.5 µM (inactive) | 2.74 µM (inactive) | 2.44 µM (inactive) | 24.2 µM (inactive) | 4.58 µM (inactive) | 2.72 | 5.64 µM (inactive) | 1.8 µM (inactive) | 8.2 µM (inactive) | 2.47 µM (inactive) |  | 13.7 µM (inactive)
CCCCCCCCCCCCC(O)C(=O)O (stereo unspecified) | > 100 µM (inactive) |  | > 100 µM (inactive) | > 100 µM (inactive) | > 100 µM (inactive) | > 100 µM (inactive) | > 100 µM (inactive) | > 100 µM (inactive) | > 100 µM (inactive) | > 100 µM (inactive) | > 100 µM (inactive) | > 100 µM (inactive) | > 100 µM (inactive) | > 100 | > 100 µM (inactive) | > 100 µM (inactive) | > 100 µM (inactive) | > 100 µM (inactive) |  | 
Cn1nc(C(=O)N2CC(CCl)c3c2cc([N+](=O)[O-])c2ccccc32)cc1NC(=O)Nc1cc(C(=O)N2CC(CCl)c3c2cc([N+](=O)[O-])c2ccccc32)nn1C (stereo unspecified) | > 100 µM (inactive) | > 100 µM (inactive) | > 100 µM (inactive) | > 100 µM (inactive) | > 100 µM (inactive) | > 100 µM (inactive) | > 100 µM (inactive) | > 100 µM (inactive) | > 100 µM (inactive) | > 100 µM (inactive) | > 100 µM (inactive) | > 100 µM (inactive) | 68.9 µM (inactive) | > 100 | > 100 µM (inactive) |  | > 100 µM (inactive) | > 100 µM (inactive) | > 100 µM (inactive) | > 100 µM (inactive)
CCOC(=O)C1C=C1C(C)(C)O (stereo unspecified) | > 10 µM (inactive) | > 10 µM (inactive) |  | > 10 µM (inactive) | > 10 µM (inactive) | > 10 µM (inactive) | > 10 µM (inactive) | > 10 µM (inactive) | > 10 µM (inactive) | > 10 µM (inactive) | > 10 µM (inactive) | 7.24 µM (inactive) | > 10 µM (inactive) | > 10 | > 10 µM (inactive) | > 10 µM (inactive) |  |  | > 10 µM (inactive) | > 10 µM (inactive)
C/C=C1\C(=O)O[C@H]2C/C(C)=C/CC/C(C)=C/CC[C@@]3(C)O[C@@H]3C[C@@H]12 | > 100 µM (inactive) | > 100 µM (inactive) | > 100 µM (inactive) | > 100 µM (inactive) | > 100 µM (inactive) | 95.1 µM (inactive) | > 100 µM (inactive) |  | > 100 µM (inactive) | > 100 µM (inactive) | 74.1 µM (inactive) | > 100 µM (inactive) | 85.5 µM (inactive) | 54.3 | > 100 µM (inactive) |  | > 100 µM (inactive) |  |  | > 100 µM (inactive)
COc1cc(C2c3cc4c(cc3[C@@H](Nc3ccc(F)cc3)C3CO[C@@H](O)[C@H]23)OCO4)cc(OC)c1O (stereo partly specified) |  | 14.4 µM (inactive) | 3.72 µM (inactive) | 5.26 µM (inactive) | 12.3 µM (inactive) | 0.236 µM (active) |  |  | 1.46 µM (inactive) | 3.61 µM (inactive) | 2.26 µM (inactive) | 3.72 µM (inactive) | 1.69 µM (inactive) | 3.89 | 5.66 µM (inactive) |  | 7.36 µM (inactive) | 12.2 µM (inactive) |  | 7.85 µM (inactive)
C=C(C)[C@H]1CC23C(=O)C(C(=O)C(C)C)=C(O)[C@](C)(C[C@H]2C1(C)C)C3=O [LALIBINONE B] |  | 11 µM (inactive) |  | 16.1 µM (inactive) | 16.4 µM (inactive) | 3.72 µM (inactive) | 14.3 µM (inactive) | 18.9 µM (inactive) | 14.5 µM (inactive) | 12.6 µM (inactive) | 12.8 µM (inactive) | 30.9 µM (inactive) | 19.1 µM (inactive) | 17.2 | 19.6 µM (inactive) | 20.7 µM (inactive) | 13.1 µM (inactive) | 12.6 µM (inactive) | 16.2 µM (inactive) | 15 µM (inactive)
